How the values were obtained:
Assay in all cases: radiometric filter-binding kinase assay
HIPK2 (human) = HIPK2 (human) (UniProt Q9H2X6)
EPHB1 (human) = EPHB1 (human) (UniProt P54762)
MARK3 (human) = MARK3 (human) (UniProt P27448)
BTK (human) = BTK (human) (UniProt Q06187)
MAPK10 (human) = MAPK10 (human) (UniProt P53779)
[1] = system: RPS6KB1 (human), P23443 [T412E]
BRSK1 (human) = BRSK1 (human) (UniProt Q8TDC3)
EPHB2 (human) = EPHB2 (human) (UniProt P29323)
MAP3K5 (human) = MAP3K5 (human) (UniProt Q99683)
DYRK2 (human) = DYRK2 (human) (UniProt Q92630)
MAP2K1 (human) = MAP2K1 (human) (UniProt Q02750)
JAK2 JH1 JH2 (human) = JAK2 JH1 JH2 (human) (UniProt O60674)
PRKCA (human) = PRKCA (human) (UniProt P17252)
MAPK9 (human) = MAPK9 (human) (UniProt P45984)
INSR (human) = INSR (human) (UniProt P06213)
MAP3K1 (human) = MAP3K1 (human) (UniProt Q13233)
DYRK3 (human) = DYRK3 (human) (UniProt O43781)
EPHB4 (human) = EPHB4 (human) (UniProt P54760)
MAPK8 (human) = MAPK8 (human) (UniProt P45983)
GCK (human) = GCK (human) (UniProt Q12851)
STK3 (human) = STK3 (human) (UniProt Q13188)
HIPK1 (human) = HIPK1 (human) (UniProt Q86Z02)
YES1 (human) = YES1 (human) (UniProt P07947)
SYK (human) = SYK (human) (UniProt P43405)
FLT1 (human) = FLT1 (human) (UniProt P17948)
TAOK1 (human) = TAOK1 (human) (UniProt Q7L7X3)
MAPK11 (human) = MAPK11 (human) (UniProt Q15759)
MAP3K11 (human) = MAP3K11 (human) (UniProt Q16584)
BRSK2 (human) = BRSK2 (human) (UniProt Q8IWQ3)
TBK1 (human) = TBK1 (human) (UniProt Q9UHD2)
EPHA2 (human) = EPHA2 (human) (UniProt P29317)
[2] = system: AKT1 (human), P31749 [S473D]
PIM1 (human) = PIM1 (human) (UniProt P11309)
AURKA (human) = AURKA (human) (UniProt O14965)
CaMK1 (human) = CaMK1 (human) (UniProt Q14012)
MAPKAPK5 (human) = MAPKAPK5 (human) (UniProt Q8IW41)

Sequence of DYRK3 (human) (O43781 whole entry, looked up): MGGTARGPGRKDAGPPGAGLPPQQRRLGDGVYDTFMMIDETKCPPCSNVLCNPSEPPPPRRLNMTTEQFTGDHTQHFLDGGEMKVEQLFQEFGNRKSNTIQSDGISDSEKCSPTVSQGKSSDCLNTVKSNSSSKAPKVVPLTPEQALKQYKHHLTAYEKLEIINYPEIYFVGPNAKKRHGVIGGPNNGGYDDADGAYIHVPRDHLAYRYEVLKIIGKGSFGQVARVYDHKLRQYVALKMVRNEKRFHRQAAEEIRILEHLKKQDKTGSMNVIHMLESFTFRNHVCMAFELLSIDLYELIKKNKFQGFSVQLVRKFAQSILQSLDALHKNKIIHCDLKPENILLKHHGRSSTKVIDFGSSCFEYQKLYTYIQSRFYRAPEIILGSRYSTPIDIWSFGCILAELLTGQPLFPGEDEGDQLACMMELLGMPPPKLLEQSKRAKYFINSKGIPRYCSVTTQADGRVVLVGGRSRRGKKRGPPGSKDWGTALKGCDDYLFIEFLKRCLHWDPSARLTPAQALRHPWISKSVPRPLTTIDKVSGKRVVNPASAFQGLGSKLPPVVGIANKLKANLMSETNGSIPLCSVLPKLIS
Sequence of HIPK1 (human) (Q86Z02 whole entry, looked up): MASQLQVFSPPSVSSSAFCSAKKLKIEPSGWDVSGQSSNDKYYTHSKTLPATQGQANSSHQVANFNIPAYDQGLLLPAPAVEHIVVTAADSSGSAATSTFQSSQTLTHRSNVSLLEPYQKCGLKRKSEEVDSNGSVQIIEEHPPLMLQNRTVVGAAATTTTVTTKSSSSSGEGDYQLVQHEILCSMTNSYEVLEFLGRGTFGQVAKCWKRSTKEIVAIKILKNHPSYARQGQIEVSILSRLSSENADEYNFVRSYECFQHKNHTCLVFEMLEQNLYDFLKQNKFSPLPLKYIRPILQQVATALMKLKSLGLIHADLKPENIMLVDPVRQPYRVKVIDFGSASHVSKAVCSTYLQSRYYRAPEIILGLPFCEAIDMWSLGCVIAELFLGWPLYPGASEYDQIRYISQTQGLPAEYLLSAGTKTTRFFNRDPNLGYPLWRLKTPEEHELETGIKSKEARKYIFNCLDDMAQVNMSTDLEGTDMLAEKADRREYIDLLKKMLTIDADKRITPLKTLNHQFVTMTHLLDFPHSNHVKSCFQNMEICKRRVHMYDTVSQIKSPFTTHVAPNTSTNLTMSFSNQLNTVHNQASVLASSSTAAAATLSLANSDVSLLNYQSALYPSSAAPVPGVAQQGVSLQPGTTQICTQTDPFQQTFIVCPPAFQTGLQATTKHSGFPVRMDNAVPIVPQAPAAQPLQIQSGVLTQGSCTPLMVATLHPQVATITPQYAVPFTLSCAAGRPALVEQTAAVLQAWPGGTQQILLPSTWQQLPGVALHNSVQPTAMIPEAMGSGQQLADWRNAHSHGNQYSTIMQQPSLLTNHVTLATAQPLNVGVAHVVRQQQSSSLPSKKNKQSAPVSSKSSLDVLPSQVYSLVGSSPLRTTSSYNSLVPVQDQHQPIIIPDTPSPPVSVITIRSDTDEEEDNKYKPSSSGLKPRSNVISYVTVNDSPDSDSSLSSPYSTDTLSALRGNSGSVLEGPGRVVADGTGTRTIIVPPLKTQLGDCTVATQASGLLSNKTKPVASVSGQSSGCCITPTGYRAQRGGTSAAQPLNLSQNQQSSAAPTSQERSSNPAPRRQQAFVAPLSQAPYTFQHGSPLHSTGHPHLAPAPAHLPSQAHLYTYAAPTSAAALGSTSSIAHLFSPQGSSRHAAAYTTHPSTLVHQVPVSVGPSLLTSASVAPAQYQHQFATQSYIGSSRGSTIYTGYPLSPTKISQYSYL
Sequence of MAP3K5 (human) (Q99683 whole entry, looked up): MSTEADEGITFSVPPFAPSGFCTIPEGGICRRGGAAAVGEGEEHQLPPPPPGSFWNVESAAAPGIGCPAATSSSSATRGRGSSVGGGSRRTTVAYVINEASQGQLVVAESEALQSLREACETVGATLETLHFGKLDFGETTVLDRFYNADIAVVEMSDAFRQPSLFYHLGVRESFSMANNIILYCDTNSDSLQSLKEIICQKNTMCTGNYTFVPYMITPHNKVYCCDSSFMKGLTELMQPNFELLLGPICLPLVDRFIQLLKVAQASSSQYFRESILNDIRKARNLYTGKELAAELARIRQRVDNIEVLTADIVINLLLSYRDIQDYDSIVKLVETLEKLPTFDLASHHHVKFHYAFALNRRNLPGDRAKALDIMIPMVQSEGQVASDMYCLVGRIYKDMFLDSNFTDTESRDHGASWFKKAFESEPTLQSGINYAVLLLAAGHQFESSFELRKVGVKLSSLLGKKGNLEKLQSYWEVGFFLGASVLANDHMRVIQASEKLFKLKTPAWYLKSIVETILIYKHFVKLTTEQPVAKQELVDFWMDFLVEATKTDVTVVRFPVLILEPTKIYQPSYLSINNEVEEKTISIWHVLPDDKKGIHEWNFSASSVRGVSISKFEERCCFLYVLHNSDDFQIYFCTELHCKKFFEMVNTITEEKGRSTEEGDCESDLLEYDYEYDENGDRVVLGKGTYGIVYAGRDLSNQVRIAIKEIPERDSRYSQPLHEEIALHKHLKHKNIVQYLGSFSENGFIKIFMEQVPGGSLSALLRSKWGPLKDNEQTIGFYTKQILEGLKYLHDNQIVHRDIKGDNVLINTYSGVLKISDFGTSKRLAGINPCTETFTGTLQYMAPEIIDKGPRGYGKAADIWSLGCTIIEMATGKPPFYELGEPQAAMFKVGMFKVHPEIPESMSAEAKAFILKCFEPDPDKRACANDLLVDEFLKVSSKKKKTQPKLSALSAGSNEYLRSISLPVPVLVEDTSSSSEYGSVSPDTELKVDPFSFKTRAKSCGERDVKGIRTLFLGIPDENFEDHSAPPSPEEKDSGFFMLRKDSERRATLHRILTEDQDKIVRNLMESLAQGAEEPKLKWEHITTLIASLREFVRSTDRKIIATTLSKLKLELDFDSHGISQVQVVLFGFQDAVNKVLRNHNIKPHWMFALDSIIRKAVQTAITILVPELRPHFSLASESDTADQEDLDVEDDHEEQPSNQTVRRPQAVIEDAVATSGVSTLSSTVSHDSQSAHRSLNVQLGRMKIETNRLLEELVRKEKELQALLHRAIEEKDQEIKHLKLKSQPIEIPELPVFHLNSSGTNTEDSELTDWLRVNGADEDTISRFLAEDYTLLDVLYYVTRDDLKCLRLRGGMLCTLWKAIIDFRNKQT
Sequence of MAPK9 (human) (P45984 whole entry, looked up): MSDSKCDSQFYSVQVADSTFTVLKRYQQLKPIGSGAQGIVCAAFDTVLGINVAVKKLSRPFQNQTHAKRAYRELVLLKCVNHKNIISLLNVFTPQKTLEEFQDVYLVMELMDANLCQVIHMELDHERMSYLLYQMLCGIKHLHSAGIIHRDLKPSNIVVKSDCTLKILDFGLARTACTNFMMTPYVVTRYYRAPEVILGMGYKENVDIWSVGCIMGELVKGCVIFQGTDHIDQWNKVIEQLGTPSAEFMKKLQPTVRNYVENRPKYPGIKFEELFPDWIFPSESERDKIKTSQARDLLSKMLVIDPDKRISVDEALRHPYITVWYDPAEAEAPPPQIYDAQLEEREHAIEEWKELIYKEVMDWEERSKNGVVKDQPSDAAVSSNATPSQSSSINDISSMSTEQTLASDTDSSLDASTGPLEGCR
Sequence of DYRK2 (human) (Q92630 whole entry, looked up): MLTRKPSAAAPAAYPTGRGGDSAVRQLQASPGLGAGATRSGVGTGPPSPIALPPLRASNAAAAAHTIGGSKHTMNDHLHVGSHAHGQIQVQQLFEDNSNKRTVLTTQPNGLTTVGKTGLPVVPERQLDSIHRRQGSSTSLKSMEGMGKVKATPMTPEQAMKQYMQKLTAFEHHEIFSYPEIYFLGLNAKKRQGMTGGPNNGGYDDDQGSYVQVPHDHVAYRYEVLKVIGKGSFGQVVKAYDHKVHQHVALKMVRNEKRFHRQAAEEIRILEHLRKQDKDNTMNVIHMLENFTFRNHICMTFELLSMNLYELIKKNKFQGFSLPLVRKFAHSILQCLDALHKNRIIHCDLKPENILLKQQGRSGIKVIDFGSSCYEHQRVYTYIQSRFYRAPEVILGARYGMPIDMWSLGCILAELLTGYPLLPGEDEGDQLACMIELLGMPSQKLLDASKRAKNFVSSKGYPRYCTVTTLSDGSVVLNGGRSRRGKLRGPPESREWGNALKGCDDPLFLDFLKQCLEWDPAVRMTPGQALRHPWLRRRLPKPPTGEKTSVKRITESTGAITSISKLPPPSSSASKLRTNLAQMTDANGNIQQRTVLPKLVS
Sequence of PIM1 (human) (P11309 whole entry, looked up): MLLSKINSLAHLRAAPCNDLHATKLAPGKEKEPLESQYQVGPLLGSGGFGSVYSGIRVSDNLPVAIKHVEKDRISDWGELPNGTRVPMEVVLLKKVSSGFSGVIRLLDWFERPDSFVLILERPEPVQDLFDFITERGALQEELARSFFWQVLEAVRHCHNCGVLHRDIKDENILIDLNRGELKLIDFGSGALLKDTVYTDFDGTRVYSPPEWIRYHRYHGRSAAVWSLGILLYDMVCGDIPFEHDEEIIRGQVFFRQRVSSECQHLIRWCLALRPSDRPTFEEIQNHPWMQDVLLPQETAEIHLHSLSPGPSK
Sequence of CaMK1 (human) (Q14012 whole entry, looked up): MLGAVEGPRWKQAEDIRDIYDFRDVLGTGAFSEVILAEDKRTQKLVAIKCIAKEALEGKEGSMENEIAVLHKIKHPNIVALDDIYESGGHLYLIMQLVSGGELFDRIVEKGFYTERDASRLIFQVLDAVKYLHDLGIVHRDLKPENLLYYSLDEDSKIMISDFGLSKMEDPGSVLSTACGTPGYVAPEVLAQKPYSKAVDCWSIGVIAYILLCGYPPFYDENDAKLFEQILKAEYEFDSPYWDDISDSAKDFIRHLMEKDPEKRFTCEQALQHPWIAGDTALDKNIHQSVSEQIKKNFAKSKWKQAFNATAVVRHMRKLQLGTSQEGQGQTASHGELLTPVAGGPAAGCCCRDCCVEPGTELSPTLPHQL

`O=C(N[C@@H](COc1ccc2[nH]c(=O)[nH]c2c1)c1ccccc1)c1cccn(Cc2ccc(F)c(F)c2)c1=O` gave a residual activity (HIPK2 (human); compound 0.1 µM) of 92%, a residual activity (HIPK2 (human); compound 1.0 µM) of 96% and a residual activity (HIPK2 (human); compound 10.0 µM) of 90%. The residual activity (EPHB1 (human); compound 0.1 µM) was 87%, the residual activity (EPHB1 (human); compound 1.0 µM) was 88% and the residual activity (EPHB1 (human); compound 10.0 µM) was 90%. The residual activity (MARK3 (human); compound 0.1 µM) was 99%, the residual activity (MARK3 (human); compound 1.0 µM) was 93% and the residual activity (MARK3 (human); compound 10.0 µM) was 83%. For the same compound, the residual activity (BTK (human); compound 0.1 µM) was 109%, the residual activity (BTK (human); compound 1.0 µM) was 108% and the residual activity (BTK (human); compound 10.0 µM) was 110%. It also gave a residual activity (MAPK10 (human); compound 0.1 µM) of 101%, a residual activity (MAPK10 (human); compound 1.0 µM) of 90% and a residual activity (MAPK10 (human); compound 10.0 µM) of 101%. For the same compound, the residual activity ([1]; compound 0.1 µM) was 103%, the residual activity ([1]; compound 1.0 µM) was 97% and the residual activity ([1]; compound 10.0 µM) was 98%. It also gave a residual activity (BRSK1 (human); compound 0.1 µM) of 118%, a residual activity (BRSK1 (human); compound 1.0 µM) of 102% and a residual activity (BRSK1 (human); compound 10.0 µM) of 92%. The residual activity (EPHB2 (human); compound 0.1 µM) was 118%, the residual activity (EPHB2 (human); compound 10.0 µM) was 121% and the residual activity (MAP3K5 (human); compound 0.1 µM) was 110%. It also gave a residual activity (MAP3K5 (human); compound 1.0 µM) of 105%, a residual activity (MAP3K5 (human); compound 10.0 µM) of 92% and a residual activity (DYRK2 (human); compound 0.1 µM) of 110%. The residual activity (DYRK2 (human); compound 1.0 µM) was 101%, the residual activity (DYRK2 (human); compound 10.0 µM) was 83% and the residual activity (MAP2K1 (human); compound 0.1 µM) was 100%. For the same compound, the residual activity (MAP2K1 (human); compound 10.0 µM) was 95%, the residual activity (JAK2 JH1 JH2 (human); compound 0.1 µM) was 98% and the residual activity (JAK2 JH1 JH2 (human); compound 1.0 µM) was 99%. The residual activity (JAK2 JH1 JH2 (human); compound 10.0 µM) was 101%, the residual activity (PRKCA (human); compound 0.1 µM) was 99% and the residual activity (PRKCA (human); compound 1.0 µM) was 91%. The residual activity (PRKCA (human); compound 10.0 µM) was 96%, the residual activity (MAPK9 (human); compound 0.1 µM) was 93% and the residual activity (MAPK9 (human); compound 1.0 µM) was 97%. It also gave a residual activity (MAPK9 (human); compound 10.0 µM) of 95%, a residual activity (INSR (human); compound 0.1 µM) of 99% and a residual activity (INSR (human); compound 1.0 µM) of 95%. It also gave a residual activity (INSR (human); compound 10.0 µM) of 93%, a residual activity (MAP3K1 (human); compound 0.1 µM) of 110% and a residual activity (MAP3K1 (human); compound 1.0 µM) of 114%. It also gave a residual activity (MAP3K1 (human); compound 10.0 µM) of 112%, a residual activity (DYRK3 (human); compound 0.1 µM) of 109% and a residual activity (DYRK3 (human); compound 1.0 µM) of 109%. The residual activity (DYRK3 (human); compound 10.0 µM) was 93%, the residual activity (EPHB4 (human); compound 1.0 µM) was 85% and the residual activity (EPHB4 (human); compound 10.0 µM) was 87%. The residual activity (MAPK8 (human); compound 0.1 µM) was 100%, the residual activity (MAPK8 (human); compound 10.0 µM) was 114% and the residual activity (GCK (human); compound 0.1 µM) was 102%. The residual activity (GCK (human); compound 1.0 µM) was 101%, the residual activity (GCK (human); compound 10.0 µM) was 94% and the residual activity (STK3 (human); compound 0.1 µM) was 102%. It also gave a residual activity (STK3 (human); compound 1.0 µM) of 105%, a residual activity (STK3 (human); compound 10.0 µM) of 100% and a residual activity (HIPK1 (human); compound 0.1 µM) of 99%. For the same compound, the residual activity (HIPK1 (human); compound 1.0 µM) was 100%, the residual activity (HIPK1 (human); compound 10.0 µM) was 86% and the residual activity (YES1 (human); compound 0.1 µM) was 104%. It also gave a residual activity (YES1 (human); compound 1.0 µM) of 105%, a residual activity (YES1 (human); compound 10.0 µM) of 95% and a residual activity (SYK (human); compound 0.1 µM) of 99%. The residual activity (SYK (human); compound 1.0 µM) was 88%, the residual activity (SYK (human); compound 10.0 µM) was 82% and the residual activity (FLT1 (human); compound 0.1 µM) was 106%. For the same compound, the residual activity (FLT1 (human); compound 1.0 µM) was 100%, the residual activity (TAOK1 (human); compound 0.1 µM) was 111% and the residual activity (TAOK1 (human); compound 1.0 µM) was 126%. For the same compound, the residual activity (TAOK1 (human); compound 10.0 µM) was 119%, the residual activity (MAPK11 (human); compound 0.1 µM) was 100% and the residual activity (MAPK11 (human); compound 1.0 µM) was 110%. The residual activity (MAPK11 (human); compound 10.0 µM) was 115%, the residual activity (MAP3K11 (human); compound 0.1 µM) was 104% and the residual activity (MAP3K11 (human); compound 1.0 µM) was 97%. For the same compound, the residual activity (MAP3K11 (human); compound 10.0 µM) was 46%, the residual activity (BRSK2 (human); compound 0.1 µM) was 118% and the residual activity (BRSK2 (human); compound 1.0 µM) was 90%. The residual activity (BRSK2 (human); compound 10.0 µM) was 79%, the residual activity (TBK1 (human); compound 0.1 µM) was 109% and the residual activity (TBK1 (human); compound 1.0 µM) was 132%. The residual activity (TBK1 (human); compound 10.0 µM) was 102%, the residual activity (EPHA2 (human); compound 1.0 µM) was 102% and the residual activity (EPHA2 (human); compound 10.0 µM) was 86%. It also gave a residual activity ([2]; compound 0.1 µM) of 96%, a residual activity ([2]; compound 1.0 µM) of 97% and a residual activity ([2]; compound 10.0 µM) of 90%. It also gave a residual activity (PIM1 (human); compound 0.1 µM) of 101%, a residual activity (PIM1 (human); compound 1.0 µM) of 105% and a residual activity (PIM1 (human); compound 10.0 µM) of 76%. For the same compound, the residual activity (AURKA (human); compound 0.1 µM) was 110%, the residual activity (AURKA (human); compound 1.0 µM) was 110% and the residual activity (AURKA (human); compound 10.0 µM) was 103%. It also gave a residual activity (CaMK1 (human); compound 0.1 µM) of 95%, a residual activity (CaMK1 (human); compound 1.0 µM) of 92% and a residual activity (CaMK1 (human); compound 10.0 µM) of 51%. For the same compound, the residual activity (MAPKAPK5 (human); compound 0.1 µM) was 108%, the residual activity (MAPKAPK5 (human); compound 1.0 µM) was 100% and the residual activity (MAPKAPK5 (human); compound 10.0 µM) was 95%.

Source: the kinase profiling compilation of Christmann-Franck et al. (2016)
